# Measured values from patent US7892754B2, “Hepatitis B virus pre-S1 derived synthetic polypeptides and uses thereof” (priority 2001, dated 2011).
# Ends that are not written are not given here. Peptide text beside a SMILES is read from it. * marks the point of attachment. Myristoyl = CCCCCCCCCCCCCC(=O)*
# Tests used:
# [1] = test system: HBV; assay: Polypeptide competition assay: inhibition of HBV infection of human hepatocyte cultures, HBsAg ELISA in supernatant; assay type: cell-based; conditions: for inhibitory activity against HBV infection, comparison of C-terminally truncated peptides: 0.8 to 800 nM; for effect on HBV infectivity (HBsAg secretion): FIG. 1
# Text: (§1) Fragments of normal adult human liver were obtained from patients undergoing hepatic resection for liver metastases (the fragments were taken at a distance from the metastasis in macroscopically normal liver). Access to this biopsy material was in agreement with French laws and satisfied the requirements of the French National Ethics Committee. Hepatocytes were isolated by the procedure of Guguen-Guillouzo and Guillouzo and cultured in H medium supplemented with 3.5×10^−6 M hydrocortisone hemisuccinate, 2 mM L-glutamine, 50 mg of gentamicin per litre, 2% dimethyl sulfoxide, 5% adult human serum, and 5% FCS. Three days after seeding, the cells were infected.
# As an infectious inoculum, a 50-fold concentrated culture medium of HepG2 clone 2.2.15 cells was used, because of an unlimited supply and a constant quality.
# It was prepared as described previously. Differentiated cells were incubated with the concentrated infectious source, 10-fold diluted in culture medium supplemented with 5% PEG 8000 (Sigma), for 20 h at 37° C. as described previously (Gripon et al., 1988; Gripon et al., 1993). Control cultures were incubated with 5% PEG and 25% FCS diluted in phosphate-buffered saline (PBS) instead of the infectious source. At the end of the incubation, cells were washed three times with the culture medium and maintained in the presence of 2% DMSO and 5×10^−5 M hydrocortisone hemisuccinate and harvested at indicated times.
# (§2) Polypeptide competition assays were performed by pre-incubating cells with the analyzed polypeptide for 30 min, at 37° C., prior to the addition of the infectious source.
# HBsAg was detected in the medium by an ELISA kit (Monolisa AgHBs plus) obtained from Bio-Rad Laboratories. Values are expressed in ng/ml of supernatant or percent of control (absence of peptide).
# [2] = test system: HBV; assay: Inhibition of HBV infection of human hepatocytes, RNA analysis (Northern blot); assay type: cell-based; conditions: myristoylation and C-terminal truncation of pre-S1 peptides
# Text: as §1
# It was prepared as described previously. Differentiated cells were incubated with the concentrated infectious source, 10-fold diluted in culture medium supplemented with 5% PEG 8000 (Sigma), for 20 h at 37° C. as described previously (Gripon et al., 1988; Gripon et al., 1993). […]
# as §2
# Total cellular RNA was extracted by Total SV RNA kit (Promega, France), fractionated on a 1.5% agarose gel and analyzed by standard Northern blot procedure (Sambrook et al., 1989). […]
# [3] = test system: DHBV; assay: In vivo DHBV infection inhibition in ducks (Dot Blot of viral DNA, Western Blot of L protein in serum); conditions: for L protein of DHBV in serum (Western Blot): 35 days post-infection, FIG. 6; for viral DNA in serum (Dot Blot): day 28 post-infection; for viral DNA in serum (Dot Blot) / viremia (Dot Blot of viral DNA in serum): FIG. 5; for viremia (Dot Blot of viral DNA in serum): ducks injected simultaneously with DHBV and peptide, days 9 and 15 post-infection
# Method: Ducks are simultaneously injected with DHBV and duck preS Myr 2-41 (DpreS2-41^myr), heron preS Myr 2-44 (HepreS2-44^myr), human preS Myr 2-68 (HupreS2-68^myr), duck preS Myr 2-21 (DpreS2-21^myr) or ddH2O. The viremia of infected animals is assessed by Dot Blot analysis of viral DNA, 5, 9, 15 and 28 days post-infection.
# [4] = test system: DHBV; assay: In vitro DHBV infection of primary duck hepatocytes; assay type: cell-based
# [5] = HBsAg 7 days after infection, FIG. 2
# [6] = 800 nM, HBsAg 7 days after infection, FIG. 2
# [7] = doses lower than 800 nM, FIG. 2
# [8] = 1 μM peptide, HBsAg 14 days post-infection
# [9] = 8 μM, HBsAg 8 days after infection, FIG. 3
compound,measurement,setting,value
CCCCCCCCCCCCCC(=O)NCC(=O)N[C@@H](CCC(N)=O)C(=O)N[C@@H](CC(N)=O)C(=O)N[C@@H](CC(C)C)C(=O)N[C@@H](CO)C(=O)N[C@H](C(=O)N[C@@H](CO)C(=O)N[C@@H](CC(N)=O)C(=O)N1CCC[C@H]1C(=O)N[C@@H](CC(C)C)C(=O)NCC(=O)N[C@@H](Cc1ccccc1)C(=O)N[C@@H](Cc1ccccc1)C(=O)N1CCC[C@H]1C(=O)N[C@@H](CC(=O)O)C(=O)N[C@@H](Cc1c[nH]cn1)C(=O)N[C@@H](CCC(N)=O)C(=O)N[C@@H](CC(C)C)C(=O)N[C@@H](CC(=O)O)C(=O)N1CCC[C@H]1C(=O)N[C@@H](C)C(=O)N[C@@H](Cc1ccccc1)C(=O)N[C@@H](CCCNC(=N)N)C(=O)N[C@@H](C)C(=O)N[C@@H](CC(N)=O)C(=O)N[C@H](C(=O)N[C@@H](C)C(=O)N[C@@H](CC(N)=O)C(=O)N1CCC[C@H]1C(=O)N[C@@H](CC(=O)O)C(=O)N[C@@H](Cc1c[nH]c2ccccc12)C(=O)N[C@@H](CC(=O)O)C(=O)N[C@@H](Cc1ccccc1)C(=O)N[C@@H](CC(N)=O)C(=O)N1CCC[C@H]1C(=O)N[C@@H](CC(N)=O)C(=O)N[C@@H](CCCCN)C(=O)N[C@@H](CC(=O)O)C(=O)N[C@H](C(=O)N[C@@H](Cc1c[nH]c2ccccc12)C(=O)N1CCC[C@H]1C(=O)N[C@@H](CC(=O)O)C(=O)N[C@@H](C)C(=O)N[C@@H](CC(N)=O)C(=O)N[C@@H](CCCCN)C(=O)N[C@H](C(=O)NCC(=O)O)C(C)C)[C@@H](C)O)[C@@H](C)O)[C@@H](C)O [HBV Myr PreS 2-48],"inhibitory activity against HBV infection, comparison of C-terminally truncated peptides",[1]; [5],highest inhibitory activity
same,inhibitory activity against HBV infection by RNA analysis,[2],highest inhibitory activity
"HBV Myr PreS 2-68: myristoylated HBV pre-S1 peptide, amino acids 2-68",inhibitory activity against HBV infection,[1]; [6],very efficient
same,inhibitory activity against HBV infection,[1]; [7],less active
same,infection of ducks with DHBV,[3]; FIGS. 5 and 6,seems to delay but do not prevent infection
Myristoyl-GLNQSTFNPLGFFPSHQLDPLFKANAGSADWDKNPNKDPWPQAHDTA [WMHBV Myr PreS 2-48],comparative inhibitory activity towards HBV infection of human cells,"[1]; decreasing peptide concentrations, HBsAg day 10 post-infection, FIG. 4",nearly as efficient as the HBV derived peptide
"HBV Myr PreS 2-78: myristoylated HBV pre-S1 peptide, amino acids 2-78",inhibitory activity against HBV infection,[1]; [6],very efficient
same,effect on HBV infectivity (HBsAg secretion),[1]; [8],almost completely abolish it
same,inhibitory activity against HBV infection,[1]; [7],less active
same,effect on HBV infectivity (HBsAg secretion),[1]; lower doses than 1 μM,partly inhibitory
CCCCCCCCCCCCCC(=O)NCC(=O)N[C@@H](CCC(N)=O)C(=O)N[C@@H](CC(N)=O)C(=O)N[C@@H](CC(C)C)C(=O)N[C@@H](CO)C(=O)N[C@H](C(=O)N[C@@H](CO)C(=O)N[C@@H](CC(N)=O)C(=O)N1CCC[C@H]1C(=O)N[C@@H](CC(C)C)C(=O)NCC(=O)N[C@@H](Cc1ccccc1)C(=O)N[C@@H](Cc1ccccc1)C(=O)N1CCC[C@H]1C(=O)N[C@@H](CC(=O)O)C(=O)N[C@@H](Cc1c[nH]cn1)C(=O)N[C@@H](CCC(N)=O)C(=O)N[C@@H](CC(C)C)C(=O)N[C@@H](CC(=O)O)C(=O)N1CCC[C@H]1C(=O)N[C@@H](C)C(=O)N[C@@H](Cc1ccccc1)C(=O)N[C@@H](CCCNC(=N)N)C(=O)N[C@@H](C)C(=O)N[C@@H](CC(N)=O)C(=O)N[C@H](C(=O)N[C@@H](C)C(=O)O)[C@@H](C)O)[C@@H](C)O [HBV Myr PreS 2-28],inhibition of HBV infection,[1]; [6],50%
same,inhibitory activity against HBV infection,[1]; [9],almost completely blocks HBV infection
same,"inhibitory activity against HBV infection, comparison of C-terminally truncated peptides",[1]; [5],largely less active
CCCCCCCCCCCCCC(=O)NCC(=O)N[C@@H](CCC(N)=O)C(=O)N[C@@H](Cc1c[nH]cn1)C(=O)N1CCC[C@H]1C(=O)N[C@@H](C)C(=O)N[C@@H](CCCCN)C(=O)N[C@@H](CO)C(=O)N[C@@H](CCSC)C(=O)N[C@@H](CC(=O)O)C(=O)N[C@H](C(=O)N[C@@H](CCCNC(=N)N)C(=O)N[C@@H](CCCNC(=N)N)C(=O)N[C@H](C(=O)N[C@@H](CCC(=O)O)C(=O)NCC(=O)NCC(=O)N[C@@H](CCC(=O)O)C(=O)N[C@H](C(=O)N[C@@H](CC(C)C)C(=O)N[C@@H](CC(C)C)C(=O)O)[C@@H](C)CC)[C@@H](C)CC)C(C)C [DpreS2-21^myr] (Myristoyl-GQHPAKSMDVRRIEGGEILL-OH),L protein of DHBV in serum (Western Blot),[3],not detected
same,viral DNA in serum (Dot Blot),[3],decreased or no longer detectable
same,viremia (Dot Blot of viral DNA in serum),[3],transitory viremia
same,in vitro inhibitory activity towards DHBV infection,[4]; primary duck hepatocytes,no in vitro inhibitory activity
CCCCCCCCCCCCCC(=O)NCC(=O)N[C@@H](CCC(N)=O)C(=O)N[C@@H](CC(N)=O)C(=O)N[C@@H](CC(C)C)C(=O)N[C@@H](CO)C(=O)N[C@H](C(=O)N[C@@H](CO)C(=O)N[C@@H](CC(N)=O)C(=O)N1CCC[C@H]1C(=O)N[C@@H](CC(C)C)C(=O)NCC(=O)N[C@@H](Cc1ccccc1)C(=O)N[C@@H](Cc1ccccc1)C(=O)N1CCC[C@H]1C(=O)N[C@@H](CC(=O)O)C(=O)N[C@@H](Cc1c[nH]cn1)C(=O)N[C@@H](CCC(N)=O)C(=O)N[C@@H](CC(C)C)C(=O)N[C@@H](CC(=O)O)C(=O)N1CCC[C@H]1C(=O)N[C@@H](C)C(=O)N[C@@H](Cc1ccccc1)C(=O)N[C@@H](CCCNC(=N)N)C(=O)N[C@@H](C)C(=O)N[C@@H](CC(N)=O)C(=O)N[C@H](C(=O)N[C@@H](C)C(=O)N[C@@H](CC(N)=O)C(=O)N1CCC[C@H]1C(=O)N[C@@H](CC(=O)O)C(=O)N[C@@H](Cc1c[nH]c2ccccc12)C(=O)N[C@@H](CC(=O)O)C(=O)N[C@@H](Cc1ccccc1)C(=O)N[C@@H](CC(N)=O)C(=O)N1CCC[C@H]1C(=O)N[C@@H](CC(N)=O)C(=O)N[C@@H](CCCCN)C(=O)O)[C@@H](C)O)[C@@H](C)O [HBV Myr PreS 2-38],inhibitory activity against HBV infection,[1]; [9],almost completely blocks HBV infection
CCCCCCCCCCCCCC(=O)NCC(=O)N[C@@H](CCC(N)=O)C(=O)N[C@@H](Cc1c[nH]cn1)C(=O)N1CCC[C@H]1C(=O)N[C@@H](C)C(=O)N[C@@H](CCCCN)C(=O)N[C@@H](CO)C(=O)N[C@@H](CCSC)C(=O)N[C@@H](CC(=O)O)C(=O)N[C@H](C(=O)N[C@@H](CCCNC(=N)N)C(=O)N[C@@H](CCCNC(=N)N)C(=O)N[C@H](C(=O)N[C@@H](CCC(=O)O)C(=O)NCC(=O)NCC(=O)N[C@@H](CCC(=O)O)C(=O)N[C@H](C(=O)N[C@@H](CC(C)C)C(=O)N[C@@H](CC(C)C)C(=O)N[C@@H](CC(N)=O)C(=O)N[C@@H](CCC(N)=O)C(=O)N[C@@H](CC(C)C)C(=O)N[C@@H](C)C(=O)NCC(=O)N[C@@H](CCCNC(=N)N)C(=O)N[C@@H](CCSC)C(=O)N[C@H](C(=O)N1CCC[C@H]1C(=O)N[C@@H](CCCCN)C(=O)NCC(=O)N[C@H](C(=O)N[C@@H](CC(C)C)C(=O)N[C@H](C(=O)N[C@@H](Cc1c[nH]c2ccccc12)C(=O)N[C@@H](CO)C(=O)NCC(=O)N[C@@H](CCCCN)C(=O)N[C@@H](Cc1ccccc1)C(=O)N1CCC[C@H]1C(=O)O)[C@@H](C)O)[C@@H](C)O)[C@@H](C)CC)[C@@H](C)CC)[C@@H](C)CC)C(C)C [DHBV Myr PreS 2-41] (Myristoyl-GQHPAKSMDVRRIEGGEILLNQLAGRMIPKGTLTWSGKFP-OH; C-terminus assumed),activity on HBV infection,[1]; text summary referring to table 1,complete absence of activity
same,L protein of DHBV in serum (Western Blot),[3],not detected
same,viral DNA in serum (Dot Blot),[3],decreased or no longer detectable
same,viremia (Dot Blot of viral DNA in serum),[3],transitory viremia
same,inhibition of DHBV infection,[4],strong inhibitor
"HBV PreS 1-78: non myristoylated peptide, pre-S1 amino acids 1 to 78 of Hepatitis B virus subtype ayw",effect on HBV infectivity (HBsAg secretion),[1]; [8],only a faint effect
